Source: ChEMBL document CHEMBL1201862, “PubChem BioAssay data set” (2004)
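Interpolation was linear, between the two tested concentrations surrounding the appropriate level; five concentrations were tested over 48 hours in 96-well plates. Here, GI50 denotes the concentration required for 50% inhibition of growth.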 Activity calls are given as the source filed them. Cut-off read from the data, not from the text of the source: active = GI50 up to about 1.1 µM and inactive = higher.

Assays:
Test in all cases: DTP human tumour cell line panel, 48 h
NCI-H460 = tested on: NCI-H460
SN12C = tested on: SN12C
UACC-257 = tested on: UACC-257
MDA-MB-231 = tested on: MDA-MB-231
SK-MEL-2 = tested on: SK-MEL-2
HCT-15 = tested on: HCT-15
ACHN = tested on: ACHN
NCI-H226 = tested on: NCI-H226
SNB-19 = tested on: SNB-19
M14 = tested on: M14
DU-145 = tested on: DU-145
SR = tested on: SR
MDA-N = tested on: MDA-N
TK-10 = tested on: TK-10
NCI-H23 = tested on: NCI-H23
MCF7 = tested on: MCF7
EKVX = tested on: EKVX
HL-60 = tested on: HL-60
CCRF-CEM = tested on: CCRF-CEM
LOX IMVI = tested on: LOX IMVI
HT-29 = tested on: HT-29
SW-620 = tested on: SW-620
SNB-75 = tested on: SNB-75
K562 = tested on: K562
PC-3 = tested on: PC-3
HCT-116 = tested on: HCT-116
IGROV-1 = tested on: IGROV-1
Hs-578T = tested on: Hs-578T
NCI-H522 = tested on: NCI-H522
UACC-62 = tested on: UACC-62
SK-OV-3 = tested on: SK-OV-3
HOP-62 = tested on: HOP-62
RPMI-8226 = tested on: RPMI-8226
OVCAR-8 = tested on: OVCAR-8
OVCAR-5 = tested on: OVCAR-5
BT-549 = tested on: BT-549
A498 = tested on: A498
Malme-3M = tested on: Malme-3M
KM12 = tested on: KM12
SF-295 = tested on: SF-295
CAKI-1 = tested on: CAKI-1
T47D = tested on: T47D
OVCAR-4 = tested on: OVCAR-4
U-251 = tested on: U-251
MDA-MB-435 = tested on: MDA-MB-435
COLO 205 = tested on: COLO 205
RXF 393 = tested on: RXF 393
OVCAR-3 = tested on: OVCAR-3
NCI/ADR-RES = tested on: NCI/ADR-RES
SK-MEL-5 = tested on: SK-MEL-5
HOP-92 = tested on: HOP-92
MOLT-4 = tested on: MOLT-4
UO-31 = tested on: UO-31
SF-268 = tested on: SF-268
HCC 2998 = tested on: HCC 2998
A549 = tested on: A549
SK-MEL-28 = tested on: SK-MEL-28
786-0 = tested on: 786-0
SF-539 = tested on: SF-539

`CCOC(=O)/C(C#N)=C1\c2c([nH]c(=S)[nH]c2=O)Oc2ccc3ccccc3c21` was tested, and the GI50 (NCI-H460) was 0.0857 µM (active), the GI50 (SN12C) was 41.1 µM (inactive) and the GI50 (UACC-257) was > 100 µM (inactive). The GI50 (MDA-MB-231) was 24.8 µM (inactive), the GI50 (SK-MEL-2) was 13 µM (inactive) and the GI50 (HCT-15) was 71.6 µM. For the same molecule, the GI50 (ACHN) was 28.8 µM (inactive), the GI50 (NCI-H226) was 18 µM (inactive) and the GI50 (SNB-19) was 0.0887 µM (active). For the same molecule, the GI50 (M14) was 43.8 µM (inactive), the GI50 (DU-145) was 78.9 µM (inactive) and the GI50 (SR) was 49.1 µM (inactive). For the same molecule, the GI50 (MDA-N) was 51.2 µM (inactive), the GI50 (TK-10) was 39.9 µM (inactive) and the GI50 (NCI-H23) was 88.1 µM (inactive). For the same molecule, the GI50 (MCF7) was 30.1 µM (inactive), the GI50 (EKVX) was 22.6 µM (inactive) and the GI50 (HL-60) was 2.64 µM (inactive). For the same molecule, the GI50 (CCRF-CEM) was 1.55 µM (inactive), the GI50 (LOX IMVI) was > 100 µM (inactive) and the GI50 (HT-29) was 12.4 µM (inactive). For the same molecule, the GI50 (SW-620) was 4.06 µM (inactive), the GI50 (SNB-75) was 23.3 µM (inactive) and the GI50 (K562) was > 100 µM (inactive). For the same molecule, the GI50 (PC-3) was 34 µM (inactive), the GI50 (HCT-116) was 67.3 µM (inactive) and the GI50 (IGROV-1) was > 100 µM (inactive). For the same molecule, the GI50 (Hs-578T) was 76.6 µM (inactive), the GI50 (NCI-H522) was 19 µM (inactive) and the GI50 (UACC-62) was 24.4 µM (inactive). The GI50 (SK-OV-3) was 44.9 µM (inactive), the GI50 (HOP-62) was 42.2 µM (inactive) and the GI50 (RPMI-8226) was 33 µM (inactive). The GI50 (OVCAR-8) was 54.7 µM (inactive), the GI50 (OVCAR-5) was > 100 µM (inactive) and the GI50 (BT-549) was > 100 µM (inactive). For the same molecule, the GI50 (A498) was 36.6 µM (inactive), the GI50 (Malme-3M) was 68.7 µM (inactive) and the GI50 (KM12) was > 100 µM (inactive). The GI50 (SF-295) was > 100 µM (inactive), the GI50 (CAKI-1) was 75 µM (inactive) and the GI50 (T47D) was 34.7 µM (inactive). For the same molecule, the GI50 (OVCAR-4) was > 100 µM (inactive), the GI50 (U-251) was 23.7 µM (inactive) and the GI50 (MDA-MB-435) was 43.2 µM (inactive). For the same molecule, the GI50 (COLO 205) was 19.5 µM (inactive), the GI50 (RXF 393) was 36.2 µM (inactive) and the GI50 (OVCAR-3) was 23.7 µM (inactive). For the same molecule, the GI50 (NCI/ADR-RES) was 59.3 µM (inactive), the GI50 (SK-MEL-5) was 14 µM (inactive) and the GI50 (HOP-92) was 43.5 µM (inactive). The GI50 (MOLT-4) was 11.2 µM (inactive), the GI50 (UO-31) was 20 µM (inactive) and the GI50 (SF-268) was 24.3 µM (inactive). The GI50 (HCC 2998) was 59.4 µM (inactive), the GI50 (A549) was 1.67 µM (inactive) and the GI50 (SK-MEL-28) was 1.46 µM (inactive). The GI50 (786-0) was 53.8 µM (inactive).
With `O=C1CC(NC(=O)C(F)(F)F)c2c1csc2Br` (stereo not given) the GI50 (NCI-H460) was 1.51 µM (inactive), the GI50 (SN12C) was 68.4 µM (inactive) and the GI50 (UACC-257) was > 100 µM (inactive). For the same molecule, the GI50 (MDA-MB-231) was > 100 µM (inactive), the GI50 (SK-MEL-2) was > 100 µM (inactive) and the GI50 (HCT-15) was 88.5 µM. The GI50 (ACHN) was > 100 µM (inactive), the GI50 (NCI-H226) was > 100 µM (inactive) and the GI50 (SNB-19) was > 100 µM (inactive). For the same molecule, the GI50 (M14) was 88.3 µM (inactive), the GI50 (DU-145) was 2.11 µM (inactive) and the GI50 (SR) was 36.9 µM (inactive). The GI50 (MDA-N) was 33.5 µM (inactive), the GI50 (TK-10) was 4.91 µM (inactive) and the GI50 (NCI-H23) was > 100 µM (inactive). The GI50 (MCF7) was 2.94 µM (inactive), the GI50 (EKVX) was 14.8 µM (inactive) and the GI50 (HL-60) was 53.1 µM (inactive). The GI50 (CCRF-CEM) was 33.6 µM (inactive), the GI50 (LOX IMVI) was 60.3 µM (inactive) and the GI50 (HT-29) was > 100 µM (inactive). The GI50 (SW-620) was 31.8 µM (inactive), the GI50 (K562) was 48.3 µM (inactive) and the GI50 (PC-3) was > 100 µM (inactive). The GI50 (HCT-116) was 32.8 µM (inactive), the GI50 (IGROV-1) was > 100 µM (inactive) and the GI50 (Hs-578T) was > 100 µM (inactive). The GI50 (NCI-H522) was 54.6 µM (inactive), the GI50 (UACC-62) was > 100 µM (inactive) and the GI50 (SK-OV-3) was > 100 µM (inactive). The GI50 (HOP-62) was > 100 µM (inactive), the GI50 (RPMI-8226) was 32.6 µM (inactive) and the GI50 (OVCAR-8) was > 100 µM (inactive). The GI50 (OVCAR-5) was 2.24 µM (inactive), the GI50 (BT-549) was 44.1 µM (inactive) and the GI50 (A498) was 45.3 µM (inactive). The GI50 (Malme-3M) was 18.8 µM (inactive), the GI50 (KM12) was 3.03 µM (inactive) and the GI50 (SF-295) was 5.77 µM (inactive). For the same molecule, the GI50 (SF-539) was 74.1 µM (inactive), the GI50 (T47D) was 3.4 µM (inactive) and the GI50 (OVCAR-4) was 58.5 µM (inactive). For the same molecule, the GI50 (U-251) was > 100 µM (inactive), the GI50 (MDA-MB-435) was 56.5 µM (inactive) and the GI50 (COLO 205) was > 100 µM (inactive). For the same molecule, the GI50 (RXF 393) was 2.87 µM (inactive), the GI50 (OVCAR-3) was 2.45 µM (inactive) and the GI50 (NCI/ADR-RES) was > 100 µM (inactive). The GI50 (SK-MEL-5) was 64.9 µM (inactive), the GI50 (HOP-92) was 35 µM (inactive) and the GI50 (MOLT-4) was 31.5 µM (inactive). The GI50 (UO-31) was 45.5 µM (inactive), the GI50 (SF-268) was 0.678 µM (active) and the GI50 (HCC 2998) was > 100 µM (inactive). For the same molecule, the GI50 (A549) was > 100 µM (inactive), the GI50 (SK-MEL-28) was > 100 µM (inactive) and the GI50 (786-0) was 26.5 µM (inactive).
